Consider twelve molecules from patent publication US11667651B2, “Aminopyridine derivatives as phosphatidylinositol phosphate kinase inhibitors” (HiberCell, Inc., priority 2017, dated 2023).

Type in all cases: biochemical
The target in assay [1] is T1, PIP4K2A (Homo sapiens, UniProt P48426).
T1 sequence (P48426 1-406): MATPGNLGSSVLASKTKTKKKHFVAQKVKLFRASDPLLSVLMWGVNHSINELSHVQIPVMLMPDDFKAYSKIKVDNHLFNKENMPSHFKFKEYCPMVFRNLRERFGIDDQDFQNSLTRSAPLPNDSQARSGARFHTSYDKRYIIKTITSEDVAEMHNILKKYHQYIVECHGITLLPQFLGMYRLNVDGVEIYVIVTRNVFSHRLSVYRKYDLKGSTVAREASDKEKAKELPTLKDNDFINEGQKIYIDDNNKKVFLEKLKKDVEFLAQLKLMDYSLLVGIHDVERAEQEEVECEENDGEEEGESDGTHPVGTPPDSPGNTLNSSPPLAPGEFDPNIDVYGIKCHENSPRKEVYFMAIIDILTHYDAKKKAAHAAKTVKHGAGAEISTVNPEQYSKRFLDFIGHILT
Description: ADP-glo kinase assay PIP4K 2A (Table 3). Also on record: made in house; host or cells: E. coli. The conditions noted are these: compounds listed under IC50 bins. The gist of the method: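 Full-length PIP4K2A (4 nM in the mix) with 100 μM PI(5)P diC8 pre-incubated 15 min with compound in MOPS pH 7.2, 25 mM MgCl2; ATP added (60 μM solution), 1 h at RT. ADP formed read by ADP-Glo luminescence; 10-point curves versus DMSO controls fitted to IC50.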
In general terms: ADP-Glo turns the ADP formed in a reaction into a luminescent signal.

In assay [2] the target is T1, PIP4K2A. Description: Kinase Assay PIP4K2 A (Table 2). Also on record: 4 nM PIP4K2A (full length protein, SignalChem); purchased SignalChem. The conditions noted are these: compounds listed under IC50 bins. The gist of the method: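 Full-length PIP4K2A (4 nM in the added mix, with 100 μM PI(5)P diC8) pre-incubated 15 min at RT with compounds (10-point, 3-fold series) in 20 mM MOPS pH 7.2, 25 mM MgCl2, 0.005% Tween 20. ATP added from a 60 μM solution, 1 h at RT; ADP-Glo luminescence, IC50 fitted from % inhibition versus DMSO.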

The next assay concerns the target T2, PIP4K2B (Homo sapiens, UniProt P78356).
T2 construct: made in house; host or cells: E. coli
T2 sequence (P78356 1-416): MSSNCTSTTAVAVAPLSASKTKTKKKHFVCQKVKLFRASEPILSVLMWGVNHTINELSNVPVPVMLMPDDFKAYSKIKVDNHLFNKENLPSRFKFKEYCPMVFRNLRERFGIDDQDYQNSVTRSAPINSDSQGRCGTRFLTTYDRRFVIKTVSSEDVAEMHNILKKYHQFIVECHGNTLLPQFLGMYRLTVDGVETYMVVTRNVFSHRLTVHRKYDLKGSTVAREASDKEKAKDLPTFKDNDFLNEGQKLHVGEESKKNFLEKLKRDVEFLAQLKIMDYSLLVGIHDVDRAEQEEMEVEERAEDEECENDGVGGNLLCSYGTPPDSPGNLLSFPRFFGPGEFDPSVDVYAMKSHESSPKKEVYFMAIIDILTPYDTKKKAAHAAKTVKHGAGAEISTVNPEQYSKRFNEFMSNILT
Description: Trans-FI P kinase assay PIP4K2B (Table 4). As to conditions: compounds listed under IC50 bins; read-out: Trans-FI P kinase assays: PIP4K2B IC50. In short, it runs like this: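 Transcreener FI detection (Ex 584/Em 623) of GDP, converted via calibration curve, gives IC50 from residual activity versus log concentration (highest 4.8 μM). Reaction: 80 μM PI5P plus DOPE carrier, 100 μM GTP, 5 nM GST-tagged enzyme, pH 7.3 HEPES with MgCl2 and 5% DMSO, 2 h after 1 h enzyme-compound preincubation at 27° C.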

The term IC50 denotes the point on the concentration scale where inhibition reaches its midpoint. As to `O=C1C[C@@H](O)CN1c1ccc(-c2ccc(Nc3cnc4c(c3)N3C(=O)CC[C@H]3CO4)nc2)cc1` [Example 236, (S)-2-((5-(4-((R)-4-hydroxy-2-oxopyrrolidin-1-yl)phenyl)pyridin-2-yl)amino)-6,6a,7,8-tetrahydro-9H-pyrido[2,3-b]pyrrolo[1,2-d][1,4]oxazin-9-one], the results for the IC50 on PIP4K2A [1], against PIP4K2A [2] and at PIP4K2B were 100 to 1000 nM, 100 to 1000 nM and 10 to 100 nM, respectively.
For `O=C1C[C@H](O)CN1c1ccc(-c2ccc(Nc3cnc4c(c3)N3C(=O)CC[C@H]3CO4)nc2)cc1` [Example 237, (S)-2-((5-(4-((S)-4-hydroxy-2-oxopyrrolidin-1-yl)phenyl)pyridin-2-yl)amino)-6,6a,7,8-tetrahydro-9H-pyrido[2,3-b]pyrrolo[1,2-d][1,4]oxazin-9-one], the half-maximal inhibitory concentration (IC50) against PIP4K2A [1] was 100 to 1000 nM; on PIP4K2A [2], 100 to 1000 nM; on PIP4K2B, above 1000 nM.
As to `CC(C)(O)C(=O)N1CCOc2ncc(Nc3ccc(-c4ccc(N5CCCC5=O)cc4)cn3)cc21` [Example 238, 1-(4-(6-((1-(2-hydroxy-2-methylpropanoyl)-2,3-dihydro-1H-pyrido[2,3-b][1,4]oxazin-7-yl)amino)pyridin-3-yl)phenyl)pyrrolidin-2-one], the values for the half-maximal inhibitory concentration (IC50) against PIP4K2A [1], against PIP4K2A [2] and at PIP4K2B were 1 to 10 nM, 1 to 10 nM and 10 to 100 nM, respectively.
As for `COc1cncc(C(=O)Nc2cncc(Nc3ccc(-c4ccc(N5CCCC5=O)cc4)cn3)c2)c1` [Example 239, 5-methoxy-N-(5-((5-(4-(2-oxopyrrolidin-1-yl)phenyl)pyridin-2-yl)amino)pyridin-3-yl)nicotinamide], the IC50 against PIP4K2A [1] was 10 to 100 nM; on PIP4K2A [2], 1 to 10 nM; on PIP4K2B, 10 to 100 nM.
Take `O=C(Nc1cncc(Nc2ccc(-c3ccc(N4CCCC4=O)cc3)cn2)c1)c1ccc(=O)[nH]c1` [Example 240, 6-oxo-N-(5-((5-(4-(2-oxopyrrolidin-1-yl)phenyl)pyridin-2-yl)amino)pyridin-3-yl)-1,6-dihydropyridine-3-carboxamide]: the results for the IC50 on PIP4K2A [1], against PIP4K2A [2] and at PIP4K2B were 100 to 1000 nM, 10 to 100 nM and 10 to 100 nM, respectively.
On to `COCCC(=O)N1CCN(c2cncc(Nc3ccc(-c4ccc(N5CCCC5=O)cc4)cn3)c2)CC1` [Example 241, 1-(4-(6-((5-(4-(3-methoxypropanoyl)piperazin-1-yl)pyridin-3-yl)amino)pyridin-3-yl)phenyl)pyrrolidin-2-one], for which the half-inhibitory concentration (IC50) at PIP4K2A [1] fell in the range of 100 to 1000 nM; against PIP4K2A [2], 10 to 100 nM; at PIP4K2B, 10 to 100 nM.
With `CN(C)C(=O)c1ccc(-c2ccc(Nc3cnc4c(c3)N3C(=O)CC[C@H]3CO4)nc2)cc1` [Example 242, (S)-N,N-dimethyl-4-(6-((9-oxo-6a,7,8,9-tetrahydro-6H-pyrido[2,3-b]pyrrolo[1,2-d][1,4]oxazin-2-yl)amino)pyridin-3-yl)benzamide], the half-inhibitory concentration (IC50) on PIP4K2A [1] fell in the range of 1 to 10 nM; against PIP4K2A [2] it was 1 to 10 nM; on PIP4K2B it was 10 to 100 nM.
On to `O=C1CCCN1c1ccc(-c2ccc(Nc3cnc4c(c3)N3C(=O)CC[C@H]3CO4)nc2)cc1F` [Example 246, (S)-2-((5-(3-fluoro-4-(2-oxopyrrolidin-1-yl)phenyl)pyridin-2-yl)amino)-6,6a,7,8-tetrahydro-9H-pyrido[2,3-b]pyrrolo[1,2-d][1,4]oxazin-9-one], for which the half-maximal inhibitory concentration (IC50) was 1 to 10 nM at PIP4K2A [1], 1 to 10 nM at PIP4K2A [2] and 10 to 100 nM at PIP4K2B.
Turning to `CCO[C@H]1C[C@@H]1C(=O)Nc1cncc(Nc2ccc(-c3ccc(N4CCCC4=O)cc3)cn2)c1` [Example 252, (1S,2S)-2-ethoxy-N-(5-((5-(4-(2-oxopyrrolidin-1-yl)phenyl)pyridin-2-yl)amino)pyridin-3-yl)cyclopropane-1-carboxamide], the 50% inhibitory concentration (IC50) at PIP4K2A [1] fell in the range of 10 to 100 nM; against PIP4K2A [2] it was 1 to 10 nM; on PIP4K2B it was 10 to 100 nM.
For the molecule `CC1(C)C[C@H]2COc3ncc(Nc4ccc(-c5ccc(N6CCCC6=O)c(F)c5)cn4)cc3N2C1=O` [Example 258, (S)-2-((5-(3-fluoro-4-(2-oxopyrrolidin-1-yl)phenyl)pyridin-2-yl)amino)-8,8-dimethyl-6,6a,7,8-tetrahydro-9H-pyrido[2,3-b]pyrrolo[1,2-d][1,4]oxazin-9-one], the IC50 against PIP4K2A [1] was 1 to 10 nM; at PIP4K2A [2], 1 to 10 nM; at PIP4K2B it was 10 to 100 nM.
As to `O=C1CCCN1c1ccc(-c2ccc(Nc3cnc4c(c3)N3C(=O)C(O)C[C@H]3CO4)nc2)cc1F` (stereo partly drawn) [Example 267, (6aS)-2-((5-(3-fluoro-4-(2-oxopyrrolidin-1-yl)phenyl)pyridin-2-yl)amino)-8-hydroxy-6,6a,7,8-tetrahydro-9H-pyrido[2,3-b]pyrrolo[1,2-d][1,4]oxazin-9-one], the concentration for half-maximal inhibition (IC50) is 10 to 100 nM against PIP4K2A [1], 1 to 10 nM against PIP4K2A [2] and 10 to 100 nM at PIP4K2B.
For the molecule `O=C1CCCN1c1ccc(-c2ccc(Nc3cnc4c(c3)N3C(=O)C(O)C[C@H]3CO4)nc2)cc1` (stereo partly drawn) [Example 268, (6aS)-8-hydroxy-2-((5-(4-(2-oxopyrrolidin-1-yl)phenyl)pyridin-2-yl)amino)-6,6a,7,8-tetrahydro-9H-pyrido[2,3-b]pyrrolo[1,2-d][1,4]oxazin-9-one], the IC50 on PIP4K2A [1] fell in the range of 10 to 100 nM; on PIP4K2A [2], 1 to 10 nM; on PIP4K2B, 10 to 100 nM.
